Results as given in patent publication US6593335B1, “Potassium channel openers” (Abbott Laboratories, priority 1997, dated 2003).
pEC50: −log10 of the molar value.

Tests used:
potassium channels [1] = biological target: potassium channels (Sus scrofa, UniProt F1SR11); experiment: Functional potassium channel opening activity in isolated Landrace pig bladder strips (field-stimulated twitch); conditions: for Landrace Pig Bladder Index: ED50 for P1075 divided by ED50 for the test agonist, averaged over tissues; for Landrace Pig Bladder pD2: negative logarithm of ED50; for Emax: pig, maximal efficacy relative to P1075, field stimulation 0.05Hz, 0.5 milli-seconds at 20 volts
Procedure, shortened: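 Landrace pig bladder strips with the mucosa removed were field-stimulated (0.05 Hz, 0.5 ms, 20 V) in Krebs Ringer bicarbonate containing propranolol, and primed with 80 mM KCl. Cumulative concentration-response curves gave maximal efficacy relative to a reference potassium channel opener, pD2, and a potency index (reference ED50/test ED50) averaged across tissues.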

potassium channels [2] = biological target: potassium channels (Cavia porcellus, UniProt A0A286XYR9); experiment: Membrane hyperpolarization (MHP) assay in primary cultured guinea-pig urinary bladder (GPB) cells, DiBAC(4)3 FLIPR; assay type: cell-based; conditions: for MHP in GPB Cells Maximal Response (% P1075): maximal steady-state hyperpolarization relative to reference P1075 (assigned as 100%); for pEC50: concentration that elicits 50% of the maximal response for the test sample
Sequence of potassium channels (Cavia porcellus, UniProt A0A286XYR9) (A0A286XYR9 1-1546): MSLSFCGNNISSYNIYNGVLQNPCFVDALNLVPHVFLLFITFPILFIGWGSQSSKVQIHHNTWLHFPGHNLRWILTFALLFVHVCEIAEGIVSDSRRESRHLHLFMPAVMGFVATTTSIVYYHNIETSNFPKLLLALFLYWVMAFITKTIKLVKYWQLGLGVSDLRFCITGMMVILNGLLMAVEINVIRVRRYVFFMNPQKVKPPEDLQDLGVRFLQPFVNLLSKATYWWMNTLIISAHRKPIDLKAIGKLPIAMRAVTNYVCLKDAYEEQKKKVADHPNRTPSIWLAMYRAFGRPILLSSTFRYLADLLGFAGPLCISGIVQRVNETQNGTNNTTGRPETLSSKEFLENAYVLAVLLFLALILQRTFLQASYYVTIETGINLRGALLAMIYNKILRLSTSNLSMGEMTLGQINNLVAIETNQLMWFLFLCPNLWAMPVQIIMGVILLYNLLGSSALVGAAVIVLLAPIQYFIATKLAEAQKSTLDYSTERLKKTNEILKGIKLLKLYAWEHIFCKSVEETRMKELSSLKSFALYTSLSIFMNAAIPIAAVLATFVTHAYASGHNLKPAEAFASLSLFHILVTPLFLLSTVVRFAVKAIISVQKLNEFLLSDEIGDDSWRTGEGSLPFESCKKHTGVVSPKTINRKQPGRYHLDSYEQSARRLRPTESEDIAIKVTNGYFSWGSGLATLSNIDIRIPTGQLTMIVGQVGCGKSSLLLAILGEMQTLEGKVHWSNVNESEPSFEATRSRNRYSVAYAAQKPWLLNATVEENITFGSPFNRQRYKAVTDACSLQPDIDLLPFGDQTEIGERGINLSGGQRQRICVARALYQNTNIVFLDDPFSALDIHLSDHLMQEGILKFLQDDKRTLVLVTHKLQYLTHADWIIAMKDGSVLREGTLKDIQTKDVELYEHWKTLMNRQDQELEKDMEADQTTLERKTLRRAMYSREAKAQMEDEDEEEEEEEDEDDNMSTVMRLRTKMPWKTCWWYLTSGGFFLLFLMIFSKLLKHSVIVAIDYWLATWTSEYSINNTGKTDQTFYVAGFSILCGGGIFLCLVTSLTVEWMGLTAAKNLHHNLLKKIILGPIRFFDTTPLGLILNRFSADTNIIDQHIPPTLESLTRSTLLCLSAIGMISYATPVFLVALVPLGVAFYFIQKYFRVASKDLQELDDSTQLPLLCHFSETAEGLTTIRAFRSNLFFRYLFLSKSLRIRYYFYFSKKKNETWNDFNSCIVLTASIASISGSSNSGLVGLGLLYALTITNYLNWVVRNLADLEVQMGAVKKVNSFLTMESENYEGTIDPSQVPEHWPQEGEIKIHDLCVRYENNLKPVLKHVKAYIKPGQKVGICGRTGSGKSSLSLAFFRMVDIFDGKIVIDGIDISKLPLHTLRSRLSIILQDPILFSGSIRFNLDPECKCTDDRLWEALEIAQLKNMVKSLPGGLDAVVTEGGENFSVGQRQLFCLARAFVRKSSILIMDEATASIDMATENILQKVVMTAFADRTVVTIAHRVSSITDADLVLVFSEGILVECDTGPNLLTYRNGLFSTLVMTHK
Sequence of potassium channels (Cavia porcellus, UniProt A0A286XYR9) (Q9JHJ9 whole entry partner): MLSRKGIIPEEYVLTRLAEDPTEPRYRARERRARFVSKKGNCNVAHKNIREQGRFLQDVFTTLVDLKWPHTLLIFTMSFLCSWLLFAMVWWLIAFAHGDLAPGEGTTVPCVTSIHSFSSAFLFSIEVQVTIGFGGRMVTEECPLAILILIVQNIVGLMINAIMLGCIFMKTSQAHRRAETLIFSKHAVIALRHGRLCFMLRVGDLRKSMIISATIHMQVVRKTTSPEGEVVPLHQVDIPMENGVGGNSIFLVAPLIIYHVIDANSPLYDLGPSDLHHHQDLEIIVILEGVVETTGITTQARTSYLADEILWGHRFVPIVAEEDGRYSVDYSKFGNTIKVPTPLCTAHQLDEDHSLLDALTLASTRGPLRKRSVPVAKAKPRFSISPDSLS
Experimental: Determination of Potassium Channel Opening Activity Membrane Hyperpolarization Assays Compounds were evaluated for potassium channel opening activity using the rat thoracic aorta smooth muscle AI 0 cell line or primary cultured guinea-pig urinary bladder (GPB) cells. The AI0 cell line was purchased from the American Type Culture Collection (Rockville, MD; Cat # 30-2002). […] Louis, MO) and 0.2 mg/mL ronase (Calbiochem, La Jolla, CA) with continuous stirring in a cell incubator for 30 minutes. The mixture was then centrifuged at 1300 x g for 5 minutes, and the pellet resuspended in Dulbecco's PBS (GIBCO, Gaithersburg, MD) and recentrifuged to remove residual enzyme. […] Cells were confirmed to be of smooth muscle type by cytoskeletal staining using a monoclonal mouse anti human-a-smooth muscle actin (Biomeda, Foster City, CA). Functional activity at potassium channels was measured by evaluating changes in membrane potential using the bis-oxonol dye DiBAC(4)3 (Molecular Probes) in a 96-well cell-based kinetic assay system, Fluorescent Imaging Plate Reader (FLIPR) (K.S. Schroeder et al., J. Biomed. Screen., v. I pp. 75-81 (1996)). DiBAC(4)3 is an anionic potentiometric probe which partitions between cells and extracellular solution in a membrane potential-dependent manner. With increasing membrane potential (for example, K+depolarization), the probe further partitions into the cell; this is measured as an increase in fluorescence due to dye interaction with intracellular lipids and proteins. Conyersely, decreasing membrane potential (hyperpolarization by potassium channel openers) evokes a decrease in fluorescence. […] HEPES, 20; NaCl, 120; KCl, 2; CaC'2, 2; MgCl2, 1; glucose, 5; pH 7.4 at 25 ° C.) containing 5 µM DiBAC(4)3 and incubated with […] of the buffer in a cell incubator for 30 minutes at 37 OC to ensure dye distribution across the membrane. After recording the baseline fluorescence for 5 minutes, the reference or test compounds, prepared at 10 times the concentration in the assay buffer, were added directly to the wells. Changes in fluorescence were monitored for an additional 25 minutes. […] Pharmacol., v. 43 pp. 474-481 (1993)). Routinely, five concentrations of […] or test compounds (log or half-log dilutions) were evaluated and the maximal steady-state hyperpolarization values (expressed as % relative to […]) plotted as a function of concentration. […] The maximal response of each compound (expressed as % relative to […]) is reported.

| Compound | melting point [°C] | Landrace Pig Bladder Index (potassium channels [1]) | Landrace Pig Bladder pD2 (potassium channels [1]) | Emax (potassium channels [1]) [%] | MHP in GPB Cells Maximal Response (% P1075) (potassium channels [2]) | pEC50 (potassium channels [2]) |
| --- | --- | --- | --- | --- | --- | --- |
| O=[N+]([O-])c1cccc(C2C3=C(CCS3(=O)=O)NC3=C2S(=O)(=O)CC3)c1 [Example 73] | 248 to 252 | 0.0022 | 4.4 | 98 |  |  |
| O=C1CCC2=C1C(c1ccc(F)c(Br)c1)C1=C(CCS1(=O)=O)N2 (centres unmarked) [Example 56, 8-(3-bromo-4-fluorophenyl)-2,3,4,5,6,8-hexahydro-7H-cyclopenta[b]thieno[2,3-e]pyridin-7-one, 1,1-dioxide] | > 260 | 0.88 | 7.1 | 97 |  |  |
| N#Cc1cccc(C2C3=C(CCC3=O)NC3=C2S(=O)(=O)CC3)c1 (centres unmarked) [Example 52, 8-(3-cyanophenyl)-2,3,4,5,6,8-hexahydro-7H-cyclopenta[b]thieno [2.3-e]pyridin-7-one, 1,1-dioxide] | 156 to 176 | 0.018 | 5.6 | 100 |  |  |
| O=S1(=O)CCC2=C1C(c1ccc(F)c(Cl)c1)C1=C(CCS1(=O)=O)N2 [Example 74] | > 260 | 0.081 | 6.1 | 100 |  |  |
| O=S1(=O)CCC2=C1C(c1ccc(F)c(C(F)(F)F)c1)C1=C(CCS1(=O)=O)N2 [Example 65] | > 260 | 0.048 | 6.0 | 100 |  |  |
| O=C1CCC2=C1C(c1ccc(F)c(C(F)(F)F)c1)C1=C(CCS1(=O)=O)N2 (centres unmarked) [Example 57, 8-(4-fluoro-3-trifluoromethylphenyl)-2,3,4,5,6,8-hexahydro-7H-cyclopenta[b]thieno [2.3-e]pyridin-7-one, 1,1-dioxide] | 254 | 0.42 | 6.8 | 100 |  |  |
| 8-(3-bromo-4-fluorophenyl)-6-trifluoromethyl-5,8-dihydrothiopyrano[3 .2-b]pyridine, 1,1-dioxide [Example 159] |  |  |  |  | 100 |  |
| CC(=O)C1=C(C)NC2=C(C1c1ccc(F)c(Br)c1)S(=O)(=O)CCC2 (centres unmarked) [Example 66, 1-[8-(3-bromo-4-fluorophenyl)-3,4,5,8-tetrahydro-6-methyl-1.-dioxido-2H-thiopyrano[3,2-b]pyridin-7-yl)lethan-1-one] | > 260 | 0.12 | 6.3 | 94 |  |  |
| O=C1CCC2=C1C(c1ccc(Cl)c(Cl)c1)C1=C(CCS1(=O)=O)N2 (centres unmarked) [Example 60, 8-(3 4-dichlorophenyl)-2,3 4,5,6,8-hexahydro-7H-cyclopenta[b]thieno [2,3-e]pyridin-7-one, 1,1-dioxide] | > 260 | 0.60 | 6.9 | 100 |  |  |
| O=C1CCC2=C1C(c1ccc(Br)s1)C1=C(CCS1(=O)=O)N2 (centres unmarked) [Example 68] | 246 to 247 |  |  |  |  |  |
| O=C1CCC2=C1C(c1ccc([N+](=O)[O-])s1)C1=C(CCS1(=O)=O)N2 (centres unmarked) [Example 70] | 251 to 254 | 0.15 | 6.3 | 100 |  |  |
| O=C1CCC2=C1C(c1cccc(Br)c1)C1=C(CCS1(=O)=O)N2 (centres unmarked) [Example 64, 8-(3-bromophenyl)-2,3,4,5,6,8-hexahydro-7H-cyclopenta[b]thieno [2,3-e]pyridin-7-one, 1,1-dioxide] | 246 |  |  |  |  |  |

Further lines, results first:

| melting point [°C] | Landrace Pig Bladder Index (potassium channels [1]) | Landrace Pig Bladder pD2 (potassium channels [1]) | Emax (potassium channels [1]) [%] | MHP in GPB Cells Maximal Response (% P1075) (potassium channels [2]) | pEC50 (potassium channels [2]) | Compound |
| --- | --- | --- | --- | --- | --- | --- |
| 208 to 210 | 0.015 | 5.2 | 100 |  |  | CC1=C(C(=O)O)C(c2ccc(F)c(Br)c2)C2=C(CCCS2(=O)=O)N1 (centres unmarked) [Example 107] |
| > 260 | 0.0047 | 4.5 | 98 |  |  | O=S1(=O)CCC2=C1C(c1ccc3nonc3c1)C1=C(CCS1(=O)=O)N2 [Example 123] |
| > 260 | 0.012 | 4.8 | 94 |  |  | O=S1(=O)CCC2=C1C(c1ccc(Cl)c(C(F)(F)F)c1)C1=C(CCS1(=O)=O)N2 [Example 122] |
| > 260 | 0.046 | 5.5 | 93 |  |  | O=S1(=O)CCC2=C1C(c1ccc(Cl)c(Cl)c1)C1=C(CCS1(=O)=O)N2 [Example 77] |
| 220 to 223 | 0.014 | 5.1 | 98 |  |  | CC1=C(C(=O)O)C(c2ccc(F)c(Br)c2)C2=C(CCS2(=O)=O)N1 (centres unmarked) [Example 106, 7-(3-bromo-4-fluorophenyl)-5-methyl-2,3,4,7-tetrahydrothieno[3.2-b]pyridine-6-carboxylic acid, 1,1-dioxide] |
|  |  |  |  | 92 | 5.92 | CC1(C)CCC2=C(C1=O)C(c1cc(Br)c(O)c(Br)c1)C1=C(CCS1(=O)=O)N2 (centres unmarked) [Example 207] |
| > 260 | 0.39 | 6.4 | 91 |  |  | O=C1CCCC2=C1C(c1ccc(F)c(Cl)c1)C1=C(CCS1(=O)=O)N2 (centres unmarked) [Example 81, 9-(3-chloro-4-fluorophenyl)-2,3,5,6,7,9-hexahydrothieno [3.2-b]quinolin-8(4H)-one, 1 1-dioxide] |
| > 250 | 0.36 | 6.6 | 100 |  |  | O=C1CCCC2=C1C(c1ccc(F)c(Cl)c1)C1=C(CCS1(=O)=O)N2 (single isomer, unassigned; (+)) [Example 109, (+)-9-(3-chloro-4-fluorophenyl)-2,3,5,6,7,9-hexahydrothieno[3,2-b]quinolin-8(4H)-one, 1,1-dioxide] |
|  |  |  |  | 12 | < 5.00 | CC1(C)CCC2=C(C1=O)C(c1cc(Cl)cc(Br)c1O)C1=C(CCS1(=O)=O)N2 (centres unmarked) [Example 199, 9-(3-bromo-5-chloro-2-hydroxyphenyl)-7,7-dimethyl-2,3.5.6,7,9-hexahydrothieno[3.2-b]quinolin-8(4H)-one 1,1-dioxide] |
| 232 |  |  |  |  |  | CC1=C(S(C)(=O)=O)C(c2ccc(Cl)c([N+](=O)[O-])c2)C2=C(CCC2=O)N1 (centres unmarked) [Example 76, 4-(4-chloro-3-nitrophenyl)-1,4,6,7-tetrahydro-2-methyl-3-,(methylsulfonyl)-5H-cyclopenta[b]pyridin-5-one] |
| > 260 | 0.025 | 5.3 | 99 |  |  | O=S1(=O)CCC2=C1C(c1ccc(Br)c(Br)c1)C1=C(CCS1(=O)=O)N2 [Example 124] |
|  |  |  |  | 51 | 5.00 | CC1(C)CCC2=C(C1=O)C(c1cccc([N+](=O)[O-])c1)C1=C(CCS1(=O)=O)N2 (centres unmarked) [Example 189, 7,7-dimethyl-9-(3-nitrophenyl)-2,3,5,6,7,,9-hexahydrothieno[3.2-b]guinolin-8(4H)-one 1,1-dioxide] |
| > 250 |  |  |  |  |  | O=C1CCCC2=C1C(c1ccc(F)c(I)c1)C1=C(CCS1(=O)=O)N2 (centres unmarked) [Example 89, 9-(4-fluoro-3-iodophenyl)-2,3,5,6,7,9-hexahydrothieno [3.2-b]quinolin-8(4H)-one, 1,1-dioxide] |
| > 270 | 0.16 | 6.3 | 100 |  |  | CC1(C)CCC2=C(C1=O)C(c1ccc(F)c(Br)c1)C1=C(CCS1(=O)=O)N2 (centres unmarked) [Example 116, 9-(3-bromo-4-fluorophenyl)-7,7-dimethyl-2,3,5,6,7,9-hexahydrothieno[3.2-b]quinolin-8(4H)-one, 1,1-dioxide] |
